From patent US20050065218A1, “Utilization of alverine, alone or in combination with tricyclic antidepressant or a specific serotonin reuptake inhibitor for the treatment of depression” (priority 2003, published 2005)
Several values for one entry are separate records, joined by “and”; a condition that tells them apart may be missing. Equal values may be shown once. Entries after “also recorded” stand apart in the source; their conditions may differ. Where a name gives a salt, the structure may show the parent alone.

Columns and labels:
Assay type in all cases: in vivo
[1] = test system: Swiss mice CD1; experiment: forced swim test, Alverine administered intraperitoneally to mice (Example 1); set-up: key to Dunnett test vs control group: * indicates a significant difference for p < 0.05 (Dunnett test); ns indicates an insignificant result; settings: for immobility time, individual animals / immobility time, Mean: 30 minutes prior to the test; for immobility time, Mean: N = 10
Protocol: To establish the advantages according to the present invention a study was carried out to 50 mice. They were divided into 5 groups of 10 mice each. These are Swiss mice CD1 (CD-1® (ICR) IGS (Charles River France) weighing between 25 and 35 g.
They were placed in a room at a temperature of between 19.5 and 24.5° C. and a relative humidity of 45 to 65% with a light/dark cycle of 12 h, ad libitum access to filtered water and pellets of laboratory-standard food.
They are placed 15 to 20 per cage, over an acclimatising period of at least 5 days prior to the tests. They are identified by marking on the fur.
The substance to be tested is Alverine citrate (Sigma, in the form of dry powder, with a salt/base ratio of 1.68) comparatively to imipramine chlorhydrate (Sigma, in the form of dry powder, with a salt/base ratio of 1.13).
The first group is the control group: it is treated only by excipient.
The second group is treated with Alverine at a dose of 3 mg/kg
The third group is treated with Alverine at a dose of 10 mg/kg
The fourth group is treated with Alverine at a dose of 30 mg/kg
The fifth group is treated with imipramine (tricyclic antidepressant) at a dose of 10 mg/kg
The doses are expressed in terms of free active substances. The substances are prepared extemporaneously in the excipient. The treatments are administered 30 minutes prior to the test in a coded and random order intraperitoneally with a volume of 10 ml/kg.
Thirty minutes following administration the five groups of mice are subjected to the forced swim test, in a vertical Plexiglas cylinder (height 24 cm, diameter 9 cm) containing water (height 6 cm, temperature 18-22° C.). The total duration of immobility is measured over the last four minutes of the test, six minutes in total. A mouse is deemed immobile when it ceases struggling and floats in the water without movements superfluous to those allowing it to keep its head above water. A drop in immobility time is the reflection of an antidepressant effect.
The forced swim test is a pre-clinical behavioural model, which has good predictive validity and is widely employed for determining the efficacy of antidepressant medications (Borsini and Meli, 1988).
The results are expressed in total duration of immobility in seconds and as a percentage of variation of the total duration of immobility calculated from the average value of the control group.
The statistical significance between the treated groups and the control group is determined by a Dunnett test using the residual variation according to analysis of the variance (P<0.05). The data are analysed using <<SigmaStat>> software.

[2] = test system: Swiss mice CD1; experiment: forced swim test, Alverine administered orally to mice (Example 2); set-up: key to Dunnett test vs control group: * indicates a significant difference for p < 0.05 (Dunnett test); ns indicates an insignificant result; settings: for immobility time, individual animals / immobility time, Mean: 60 minutes prior to the test; for immobility time, Mean: N = 10
[3] = test system: Swiss mice CD1; experiment: forced swim test, Alverine and fluoxetine administered intraperitoneally to mice (Example 3, second test); settings: for immobility time, individual animals / immobility time, Mean: 30 minutes prior to the test; for immobility time, Mean: n = 10
Protocol: These are Swiss mice CD1 (CD-1® (ICR) IGS (Charles River France) weighing between 25 and 35 g. […] They are placed 15 to 20 per cage, over an acclimatising period of at least 5 days prior to the tests. They are identified by marking on the fur. […] The mice were divided into two test comprising six groups of 10 mice each. For the second test: The first group is the control group: it is treated only by excipient. […] The doses are expressed in terms of free active substances. The test substances are prepared extemporaneously in a saline solution. The treatments are co-administered 30 minutes prior to the test in a coded and random order intraperitoneally with a volume of 10 ml/kg (5 ml/kg for each administration). […] The total duration of immobility is measured over the last four minutes of the test, six minutes in total. A mouse is deemed immobile when it ceases struggling and floats in the water without movements superfluous to those allowing it to keep its head above water. A drop in immobility time is the reflection of an antidepressant effect. The forced swim test is a pre-clinical behavioural model, which has good predictive validity and is widely employed for determining the efficacy of antidepressant medications (Borsini and Meli, 1988). The results are expressed in total duration of immobility in seconds and as a percentage of variation of the total duration of immobility calculated from the average value of the control group. The statistical significance between two treated groups is determined by using a Student test (P<0.05) The data are analysed using <<SigmaStat>> software.

[4] = test system: Swiss mice CD1; experiment: observation of secondary effects in mice treated orally (Example 2); settings: treated orally, 10, 30, 100 mg/kg
[5] = Alverine citrate 3 mg/kg intraperitoneally
[6] = Alverine citrate 10 mg/kg intraperitoneally
[7] = Alverine citrate 30 mg/kg intraperitoneally
[8] = Alverine citrate 10 mg/kg orally
[9] = Alverine citrate 30 mg/kg orally
[10] = Alverine citrate 100 mg/kg orally
[11] = Alverine 3 mg/kg intraperitoneally
[12] = Alverine 10 mg/kg intraperitoneally

secondary effect [4]: no secondary effect was observed
Structure (SMILES): CCN(CCCc1ccccc1)CCCc1ccccc1 [Alverine citrate, N-ethyl-3,3′-diphenyldipropylamine]
immobility time compared with mice treated at 10 mg/kg of imipramine ([1]; 10 mg/kg intraperitoneally): comparable
% of variation of immobility time vs control group [1, 5]: −15%
Dunnett test vs control group [1, 5]: ns
immobility time, individual animals [1, 5]: 128 s and 82 s and 151 s and 132 s and 127 s and 88 s and 85 s and 99 s and 93 s and 118 s
immobility time, Mean [1, 5]: 110.3 s
% of variation of immobility time vs control group [1, 6]: −53%
Dunnett test vs control group [1, 6]: * (* indicates a significant difference for p < 0.05 (Dunnett test))
immobility time, individual animals [1, 6]: 29 s and 86 s and 28 s and 30 s and 90 s and 99 s and 65 s and 129 s and 57 s and 3 s
immobility time, Mean [1, 6]: 61.6 s
% of variation of immobility time vs control group [1, 7]: −80%
Dunnett test vs control group [1, 7]: * (* indicates a significant difference for p < 0.05 (Dunnett test))
immobility time, individual animals [1, 7]: 97 sec and 3 sec and 66 sec and 36 sec and 0 sec and 15 sec and 7 sec (2×) and 16 sec and 12 sec
immobility time, Mean [1, 7]: 25.9 s
antidepressant effect (in words) ([1]; injected intraperitoneally, 3 to 30 mg/kg): antidepressant effect related to the dose; also recorded: significant antidepressant effect in mice and equal to that of Imipramine, at comparable doses
% of variation of immobility time vs control group [2, 8]: −30%
Dunnett test vs control group [2, 8]: ns
immobility time, individual animals [2, 8]: 86 s and 95 s and 104 s and 111 s and 126 s and 108 s and 78 s and 115 s and 106 s and 113 s
immobility time, Mean [2, 8]: 104.2 s
% of variation of immobility time vs control group [2, 9]: −43%
Dunnett test vs control group [2, 9]: * (* indicates a significant difference for p < 0.05 (Dunnett test))
immobility time, individual animals [2, 9]: 104 sec and 80 sec and 64 sec and 70 sec and 105 sec (3×) and 41 sec and 63 sec and 113 sec
immobility time, Mean [2, 9]: 85.0 s
% of variation of immobility time vs control group [2, 10]: −60%
Dunnett test vs control group [2, 10]: * (* indicates a significant difference for p < 0.05 (Dunnett test))
immobility time, individual animals [2, 10]: 52 s and 129 s and 67 s and 6 s and 105 s and 75 s and 81 s and 5 s and 37 s and 32 s
immobility time, Mean [2, 10]: 58.9 s
antidepressant effect (in words) ([2]; administered orally, 10 to 100 mg/kg): antidepressant effect related to the dose; also recorded: significant antidepressant effect in mice
% of variation of immobility time vs control group [3, 11]: −37%
Dunnett test vs control group [3, 11]: * (* indicates a significant difference for p < 0.05 (Dunnett test))
immobility time, individual animals [3, 11]: 119 sec and 138 sec and 117 sec (2×) and 110 sec and 73 sec and 47 sec and 124 sec and 72 sec and 32 sec
immobility time, Mean [3, 11]: 94.9 s
% of variation of immobility time vs control group [3, 12]: −49%
Dunnett test vs control group [3, 12]: * (* indicates a significant difference for p < 0.05 (Dunnett test))
immobility time, individual animals [3, 12]: 63 sec and 75 sec (2×) and 77 sec and 46 sec and 6 sec and 113 sec and 89 sec and 104 sec and 125 sec
immobility time, Mean [3, 12]: 77.3 s
decrease in the duration of immobilisation as compared to the control group (in words) ([3]; tested alone at 3 mg/kg intraperitoneally): statistically significant decrease
